In patent US12150775B2, “Treatment of a disease of the gastrointestinal tract with an immunosuppressant” (BIORA THERAPEUTICS, INC., priority 2016, dated 2024):

Experiment: Tissue, plasma and GI content pharmacokinetics of tacrolimus, oral vs intra-cecal ingestible device delivery
Format: in vivo, Yorkshire-Cross farm swine
Conditions: swine; intra-cecally vs orally administered, 12 hours post-dose (FIG. 76)
Experimental: No further randomization procedure was employed.
Animals in Group 1 received an ingestible device containing 0.8 mL of vehicle solution (80% alcohol, 20% HCO-60). Animals in Group 2 received orally […] liquid formulation of tacrolimus at 4 mg/0.8 mL per animal (Prograf. 5 mg/mL). Animals in Group 3 received intra-cecally an ingestible device containing tacrolimus at 1 mg in 0.8 mL per ingestible device. Animals in Group 4 received intra-cecally an ingestible device containing tacrolimus at 2 mg in 0.8 mL per ingestible device. Animals in Group 5 received intra-cecally an ingestible device containing tacrolimus at 4 mg in 0.8 mL per ingestible device. […]
Approximately 200˜400 mg of rectal content were collected, if available, with a fecal swab (Copan Diagnostics Nylon Flocked Dry Swabs, 502CS01). The fecal swab was pre-weighed and weighed after collection in the collection tube (Sterile Tube and Cap No Media, PFPM913S), and the sample weight was recorded. […]
For tissue necropsy, small intestine fluid and cecal fluid were collected separately from all the animals into two separate square plastic bottles, and stored at −20° C. The length and diameter of the cecum and the colon was measured from one animal in each group and recorded for reference. […] All samples were weighed, and the tissue sample weights were recorded. […]

mean concentration of tacrolimus in the cecum tissue: higher
mean concentration of tacrolimus in the proximate colon tissue: higher
Structure (SMILES): C=CC[C@@H]1/C=C(\C)C[C@H](C)C[C@H](OC)[C@H]2O[C@@](O)(C(=O)C(=O)N3CCCC[C@H]3C(=O)O[C@H](/C(C)=C/[C@@H]3CC[C@@H](O)[C@H](OC)C3)[C@H](C)[C@@H](O)CC1=O)[C@H](C)C[C@@H]2OC [tacrolimus, Tacrolimus]
